Assay results taken from patent US8317912B2, “Wet state preservation of mineral slurries” (Arch Chemicals, Inc., priority 2011, dated 2012).

Test system: contaminated slurry
Test: Wet state preservation challenge test: dosed calcium carbonate slurry inoculated repeatedly with contaminated slurry, streaked on nutrient agar, examined for viable colonies; for growth of viable colonies on nutrient agar: key: − = no growth (no visible colonies); <10 = very light growth; + = light growth; ++ = moderate growth; +++ = heavy growth
Type: cell-based, bacteria
Set-up: viable colonies on nutrient agar: unit not given here
Conditions: for test outcome in place of 3rd inoculation: surfactant 0.1, 0.05, 0.025 and 0.01%, test completed after 2nd inoculation; for efficacy in preserving contaminated slurry (summary of Tables 4-8): between 0.03% and 0.09% of biocide A plus the surfactant, compared to biocide A and the surfactant used alone; for growth of viable colonies on nutrient agar: Biocide A 0 %
Experimental: In this example, a calcium carbonate-containing aqueous slurry was sterilized to eradicate bacterial contamination by weighing out 40 g aliquots into 60 g glass bottles and autoclaving the aliquots for 20 minutes at 120° C. A series of samples were prepared by taking the 40 g aliquots of the sterilized slurry and dosing with 0.136, 0.091, 0.046, 0.023, 0.011, and 0% of a biocide composition (“Biocide A”) shown in Table 1 plus 0, 0.01, 0.025, 0.05, and 0.1% of a surfactant as shown in Table 2. All samples were allowed to stand for 24 hours to equilibrate.
After equilibration, each test sample was inoculated with 0.8 g of a contaminated slurry, the bacteria count of which is shown in Table 3. The samples were incubated at 30° C. After a contact time of 6 hours, 1, 2, 3, or 4 days, a small aliquot of each sample was streaked across the surface of nutrient agar, incubated at 30° C. for 48 hours and the surface was examined for viable colonies. The inoculation and assessment procedures were repeated at 3 or 4 day intervals for a period of 3 inoculations.

[1] = Biocide A 0.091%, surfactant 0.05%, 1st inoculation, 1 day
[2] = surfactant 0.01 %, 1st inoculation, 0.2 days
[3] = surfactant 0.01 %, 1st inoculation, 1 day
[4] = surfactant 0.01 %, 1st inoculation, 2 days
[5] = surfactant 0.01 %, 1st inoculation, 3 days
[6] = surfactant 0.025 %, 1st inoculation, 0.2 days
[7] = surfactant 0.025 %, 1st inoculation, 1 day
[8] = surfactant 0.025 %, 1st inoculation, 2 days
[9] = surfactant 0.025 %, 1st inoculation, 3 days
[10] = surfactant 0.05 %, 1st inoculation, 0.2 days
[11] = surfactant 0.05 %, 1st inoculation, 1 day
[12] = surfactant 0.05 %, 1st inoculation, 2 days
[13] = surfactant 0.05 %, 1st inoculation, 3 days
[14] = surfactant 0.1 %, 1st inoculation, 0.2 days
[15] = surfactant 0.1 %, 1st inoculation, 1 day
[16] = surfactant 0.1 %, 1st inoculation, 2 days
[17] = surfactant 0.1 %, 1st inoculation, 3 days
[18] = Biocide A 0.091%, surfactant 0.01%, 1st inoculation, 0.2 days
[19] = Biocide A 0.136%, surfactant 0.025%, 3rd inoculation, 1 day
[20] = Biocide A 0.136%, surfactant 0.05%, 3rd inoculation, 1 day

CCCCC(CC)COC(=O)CC(C(=O)OCC(CC)CCCC)S(=O)(=O)[O-].[Na+] (centres unmarked) [Aerosol ® OT, Sodium dioctyl suphosuccinate]
test outcome in place of 3rd inoculation (Biocide A 0.023%): SAMPLES FAILED
viable colonies on nutrient agar (Biocide A 0.091%, surfactant 0.01%, 1st inoculation, 1 day): <10
viable colonies on nutrient agar [1]: <10
viable colonies on nutrient agar (Biocide A 0.136%, surfactant 0.025%, 1st inoculation, 1 day): <10
efficacy in preserving contaminated slurry (summary of Tables 4-8): improved efficacy
growth of viable colonies on nutrient agar [2]: +++
growth of viable colonies on nutrient agar [3]: +++
growth of viable colonies on nutrient agar [4]: +++
growth of viable colonies on nutrient agar [5]: +++
growth of viable colonies on nutrient agar [6]: +++
growth of viable colonies on nutrient agar [7]: +++
growth of viable colonies on nutrient agar [8]: +++
growth of viable colonies on nutrient agar [9]: +++
growth of viable colonies on nutrient agar [10]: +++
growth of viable colonies on nutrient agar [11]: +++
growth of viable colonies on nutrient agar [12]: +++
growth of viable colonies on nutrient agar [13]: +++
growth of viable colonies on nutrient agar [14]: +++
growth of viable colonies on nutrient agar [15]: +++
growth of viable colonies on nutrient agar [16]: +++
growth of viable colonies on nutrient agar [17]: +++

CCCCCCCCCCCCc1ccc(S(=O)(=O)O)cc1 [Dodecyl benzene sulfonic acid]
viable colonies on nutrient agar (Biocide A 0.023%, surfactant 0.01%, 1st inoculation, 2 days): <10
viable colonies on nutrient agar (Biocide A 0.023%, surfactant 0.05%, 1st inoculation, 2 days): <10
viable colonies on nutrient agar (Biocide A 0.023%, surfactant 0.05%, 1st inoculation, 3 days): <10
viable colonies on nutrient agar (Biocide A 0.023%, surfactant 0.1%, 1st inoculation, 2 days): <10
viable colonies on nutrient agar (Biocide A 0.023%, surfactant 0.1%, 1st inoculation, 3 days): <10
test outcome in place of 3rd inoculation (Biocide A 0.023%): SAMPLES FAILED
viable colonies on nutrient agar (Biocide A 0.046%, surfactant 0.025%, 3rd inoculation, 2 days): <10
viable colonies on nutrient agar (Biocide A 0.046%, surfactant 0.05%, 3rd inoculation, 2 days): <10
viable colonies on nutrient agar (Biocide A 0.046%, surfactant 0.1%, 3rd inoculation, 2 days): <10
viable colonies on nutrient agar [18]: <10
viable colonies on nutrient agar (Biocide A 0.091%, surfactant 0.01%, 3rd inoculation, 1 day): <10
viable colonies on nutrient agar (Biocide A 0.091%, surfactant 0.05%, 1st inoculation, 0.2 days): <10
viable colonies on nutrient agar (Biocide A 0.091%, surfactant 0.1%, 3rd inoculation, 1 day): <10
viable colonies on nutrient agar (Biocide A 0.136%, surfactant 0.01%, 3rd inoculation, 1 day): <10
viable colonies on nutrient agar [19]: <10
viable colonies on nutrient agar [20]: <10
efficacy in preserving contaminated slurry (summary of Tables 4-8): improved efficacy
growth of viable colonies on nutrient agar [2]: +++
growth of viable colonies on nutrient agar [3]: +++
growth of viable colonies on nutrient agar [4]: +++
growth of viable colonies on nutrient agar [5]: +++
growth of viable colonies on nutrient agar [6]: +++
growth of viable colonies on nutrient agar [7]: +++
growth of viable colonies on nutrient agar [8]: +++
growth of viable colonies on nutrient agar [9]: +++
growth of viable colonies on nutrient agar [10]: +++
growth of viable colonies on nutrient agar [11]: +++
growth of viable colonies on nutrient agar [12]: +++
growth of viable colonies on nutrient agar [13]: +++
growth of viable colonies on nutrient agar [14]: +++
growth of viable colonies on nutrient agar [15]: +++
growth of viable colonies on nutrient agar [16]: +++
growth of viable colonies on nutrient agar [17]: +++

CCCCC(CC)CN(CCC(=O)[O-])CCC(=O)[O-].[Na+].[Na+] (centres unmarked) [Lakeland AMA LF70 ™]
test outcome in place of 3rd inoculation (Biocide A 0.023%): SAMPLES FAILED
viable colonies on nutrient agar (Biocide A 0.046%, surfactant 0.01%, 1st inoculation, 2 days): <10
viable colonies on nutrient agar (Biocide A 0.046%, surfactant 0.1%, 1st inoculation, 2 days): <10
viable colonies on nutrient agar [18]: <10
viable colonies on nutrient agar (Biocide A 0.091%, surfactant 0.01%, 3rd inoculation, 2 days): <10
viable colonies on nutrient agar (Biocide A 0.091%, surfactant 0.025%, 1st inoculation, 3 days): <10
viable colonies on nutrient agar [1]: <10
viable colonies on nutrient agar (Biocide A 0.091%, surfactant 0.05%, 1st inoculation, 3 days): <10
viable colonies on nutrient agar (Biocide A 0.091%, surfactant 0.05%, 3rd inoculation, 2 days): <10
viable colonies on nutrient agar (Biocide A 0.091%, surfactant 0.1%, 1st inoculation, 3 days): <10
viable colonies on nutrient agar (Biocide A 0.091%, surfactant 0.1%, 3rd inoculation, 2 days): <10
viable colonies on nutrient agar (Biocide A 0.136%, surfactant 0.01%, 1st inoculation, 3 days): <10
viable colonies on nutrient agar [19]: <10
viable colonies on nutrient agar (Biocide A 0.136%, surfactant 0.05%, 1st inoculation, 1 day): <10
viable colonies on nutrient agar (Biocide A 0.136%, surfactant 0.05%, 1st inoculation, 3 days): <10
viable colonies on nutrient agar [20]: <10
viable colonies on nutrient agar (Biocide A 0.136%, surfactant 0.1%, 1st inoculation, 1 day): <10
viable colonies on nutrient agar (Biocide A 0.136%, surfactant 0.1%, 1st inoculation, 3 days): <10

CCCCCCCCCCCCOS(=O)(=O)[O-].[Na+] [SDS, Sodium dodecyl sulfate]
viable colonies on nutrient agar (Biocide A 0.023%, surfactant 0.01%, 1st inoculation, 3 days): <10
viable colonies on nutrient agar (Biocide A 0.023%, surfactant 0.025%, 1st inoculation, 1 day): <10
viable colonies on nutrient agar (Biocide A 0.046%, surfactant 0.01%, 1st inoculation, 1 day): <10
viable colonies on nutrient agar (Biocide A 0.046%, surfactant 0.01%, 3rd inoculation, 3 days): <10
viable colonies on nutrient agar (Biocide A 0.046%, surfactant 0.05%, 1st inoculation, 0.2 days): <10
viable colonies on nutrient agar (Biocide A 0.046%, surfactant 0.05%, 2nd inoculation, 1 day): <10
viable colonies on nutrient agar (Biocide A 0.046%, surfactant 0.1%, 1st inoculation, 0.2 days): <10
viable colonies on nutrient agar (Biocide A 0.046%, surfactant 0.1%, 2nd inoculation, 1 day): <10
viable colonies on nutrient agar (Biocide A 0.091%, surfactant 0.025%, 3rd inoculation, 0.2 days): <10
efficacy in preserving contaminated slurry (summary of Tables 4-8): improved efficacy
growth of viable colonies on nutrient agar [2]: +++
growth of viable colonies on nutrient agar [3]: +++
growth of viable colonies on nutrient agar [4]: +++
growth of viable colonies on nutrient agar [5]: +++
growth of viable colonies on nutrient agar [6]: +++
growth of viable colonies on nutrient agar [7]: +++
growth of viable colonies on nutrient agar [8]: +++
growth of viable colonies on nutrient agar [9]: +++
growth of viable colonies on nutrient agar [10]: +++
growth of viable colonies on nutrient agar [11]: +++
growth of viable colonies on nutrient agar [12]: +++
growth of viable colonies on nutrient agar [13]: +++
growth of viable colonies on nutrient agar [14]: +++
growth of viable colonies on nutrient agar [15]: +++
growth of viable colonies on nutrient agar [16]: +++
growth of viable colonies on nutrient agar [17]: +++
